Test results: the supplement of paper PMC11208160

Assay: recombinant barcode read abundance after kanamycin selection (control-corrected) (log10(CPM+1)); higher = more efficient recombination; sequences stand for … in AGTGCAGAGAAAATCGGCCAGTTTTCTCTGCCTGCAGTCCGCATGCCGT…AGATTTATGCAGCGGACTGCCTTTCTCCCAAAGTGATAAACCGGACAGTATCATGGACCGGTTTTCCCGGTAATCCGTATTTGCAAGGTTGGTTTCACT; site = the 11-nt target
Method in brief: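 A vector carrying a T7-inducible recombinase and the last 73 bp of the bridge RNA received, by Gibson cloning, oligos encoding a promoter, target, barcode and the first 104 bridge RNA bases under J23119. The pooled constructs entered E. coli together with a donor plasmid by electroporation. Selection used chloramphenicol/ampicillin/kanamycin with 0.1 mM IPTG, with chloramphenicol/ampicillin LB agar as the control, each in two replicates. Recombination efficiency is the averaged, control-corrected counts-per-million of barcodes at recombinant junctions, reported as log10(CPM+1).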
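Also: IS621 recombinase and bridge RNA in Escherichia coli cells.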

“CAGCAAGCTTGGGTTCTAACCTGTTGCCT (site CAGTACGCTAG)” and “GGGGCATCTTGGGTTCTAACCTGTTGCCT (site GGGACATCTAG)” are within 0.2 log units of each other in “recombinant barcode read abundance (log10)” value: 0.0513 for the first, 0.105 for the second.

“GAGACTCCTTGGGTTCTAACCTGTTGCTA (site GCGACTCCTTA)” and “AGACCTCCTTGGGTTCTAACCTGTTGCTT (site AGACGTCCTAA)” are within 0.2 log units of each other in “recombinant barcode read abundance (log10)” value: 0.0503 for the first, 0.138 for the second.

Compared with “CGGGCTACTTGGGTTCTAACCTGTTGCCA (site CGGGCTACTTG)”, “CTCGCTCCTTGGGTTCTAACCTGTTGCTG (site CTCGCTCCTCA)” is higher in “recombinant barcode read abundance (log10)” value: 0.334 for the first, 0.563 for the second.

“TTCAAGCCTTGGGTTCTAACCTGTTGCGG (site TTCAAGCCTAC)” and “CTAGTCTCTTGGGTTCTAACCTGTTGCGT (site CTAGGATCTAC)” are within 0.2 log units of each other in “recombinant barcode read abundance (log10)” value: 0.222 for the first, 0.0308 for the second.

Going from “TTGGTCACTTGGGTTCTAACCTGTTGCCT (site TTGGTCACTAG)” to “CATCGGACTTGGGTTCTAACCTGTTGCGA (site AGGGCACCTCT)”, the “recombinant barcode read abundance (log10)” value falls from 2.1 to 0.112.

First: CCAAGATCTTGGGTTCTAACCTGTTGCCT (site CAAAGATCTAG)
Second: CTAGGAGCTTGGGTTCTAACCTGTTGCTG (site CTAGGAGCTCA)
The “recombinant barcode read abundance (log10)” value of the first is lower: 0.178 for the first, 1.75 for the second.

Compared with “ATTAGGACTTGGGTTCTAACCTGTTGCAG (site ATTAGGACTCA)”, “TCCTATCCTTGGGTTCTAACCTGTTGCGT (site TCCCATCCTAC)” is higher in “recombinant barcode read abundance (log10)” value: 0.579 for the first, 0.9 for the second.

Going from “TCATATACTTGGGTTCTAACCTGTTGCCT (site TCATATACTAG)” to “GGATGCACTTGGGTTCTAACCTGTTGCCA (site GGATTCACTTG)”, the “recombinant barcode read abundance (log10)” value falls from 0.553 to 0.319.

Going from “TATTGGACTTGGGTTCTAACCTGTTGCAG (site TATTGGACTTT)” to “GATACGACTTGGGTTCTAACCTGTTGCCT (site GATACGCCTAG)”, the “recombinant barcode read abundance (log10)” value rises from 0.14 to 0.748.

First: GAGTGAGCTTGGGTTCTAACCTGTTGCAT (site GAGCGAGCTAT)
Second: TGCGTTCCTTGGGTTCTAACCTGTTGCGT (site TGCGTTCCTAC)
The “recombinant barcode read abundance (log10)” value of the first is higher: 1.95 for the first, 0.88 for the second.

“CCGTGAACTTGGGTTCTAACCTGTTGCCT (site CGGTGAACTAG)” and “TGCTCGGCTTGGGTTCTAACCTGTTGCCT (site AGCTCCGCTAG)” are within 0.2 log units of each other in “recombinant barcode read abundance (log10)” value: 0.0382 for the first, 0 for the second.

“GACTCTCCTTGGGTTCTAACCTGTTGCAG (site GACTCTCCTCT)” and “TGTCTGTCTTGGGTTCTAACCTGTTGCTT (site TGTCTGTCTAA)” are within 0.2 log units of each other in “recombinant barcode read abundance (log10)” value: 0.0267 for the first, 0.186 for the second.

Compared with “TTAGCGTCTTGGGTTCTAACCTGTTGCCT (site TTAGCCTCTAG)”, “TAGGCCACTTGGGTTCTAACCTGTTGCTT (site TAGGCCACTAT)” is higher in “recombinant barcode read abundance (log10)” value: 0.0674 for the first, 0.539 for the second.

First: TAACGGGCTTGGGTTCTAACCTGTTGCCG (site TAACGGGCTCG)
Second: TAGAATCCTTGGGTTCTAACCTGTTGCAC (site TAGAATCCTAT)
The “recombinant barcode read abundance (log10)” value of the first is higher: 0.529 for the first, 0.117 for the second.

Going from “TATAGAGCTTGGGTTCTAACCTGTTGCGG (site TACAGAGCTCC)” to “CAATTACCTTGGGTTCTAACCTGTTGCTT (site CAATTACCTAA)”, the “recombinant barcode read abundance (log10)” value rises from 0.297 to 0.682.

“AGATTTCCTTGGGTTCTAACCTGTTGCCT (site AAATTTCCTAG)” and “AGTCATACTTGGGTTCTAACCTGTTGCTT (site AGTCGGACTAA)” are within 0.2 log units of each other in “recombinant barcode read abundance (log10)” value: 0.0272 for the first, 0.0739 for the second.

First: GGGGCATCTTGGGTTCTAACCTGTTGCTT (site GGGGCATCTAA)
Second: TATCCGACTTGGGTTCTAACCTGTTGCCT (site TATCCGACTTG)
The “recombinant barcode read abundance (log10)” value of the first is higher: 0.95 for the first, 0.0377 for the second.

“GCAGGGACTTGGGTTCTAACCTGTTGCCT (site GAAGGGACTAG)” and “GGGTTCGCTTGGGTTCTAACCTGTTGCCT (site GGGTTCCCTAG)” are within 0.2 log units of each other in “recombinant barcode read abundance (log10)” value: 0.56 for the first, 0.362 for the second.

“CCTAGACCTTGGGTTCTAACCTGTTGCCT (site CCTAGACCTAG)” and “CTAAGGTCTTGGGTTCTAACCTGTTGCTT (site CTAAGGTCTAT)” are within 0.2 log units of each other in “recombinant barcode read abundance (log10)” value: 0.771 for the first, 0.886 for the second.

“GCTTTGACTTGGGTTCTAACCTGTTGCCT (site GCTTGGACTAG)” and “AGGGCGCCTTGGGTTCTAACCTGTTGCCT (site ATGGCGCCTAG)” are within 0.2 log units of each other in “recombinant barcode read abundance (log10)” value: 0.0213 for the first, 0.122 for the second.

“CACTTGCCTTGGGTTCTAACCTGTTGCCT (site CACTTGGCTAG)” and “CAAGTGGCTTGGGTTCTAACCTGTTGCCT (site CAAGTCGCTAG)” are within 0.2 log units of each other in “recombinant barcode read abundance (log10)” value: 0.0743 for the first, 0.0501 for the second.

“GCCATAACTTGGGTTCTAACCTGTTGCCT (site GCCATTACTAG)” and “CTAAGCTCTTGGGTTCTAACCTGTTGCTA (site CTAAGCTCTAA)” are within 0.2 log units of each other in “recombinant barcode read abundance (log10)” value: 0.191 for the first, 0.0436 for the second.

Compared with “GGGCACTCTTGGGTTCTAACCTGTTGCAT (site GGGCACTCTAT)”, “GTAACCTCTTGGGTTCTAACCTGTTGCTC (site GTCACCTCTTA)” is lower in “recombinant barcode read abundance (log10)” value: 2.22 for the first, 0.00986 for the second.

Compared with “AAGTTAGCTTGGGTTCTAACCTGTTGCGG (site AAGTTAGCTCC)”, “CTACATCCTTGGGTTCTAACCTGTTGCTT (site CTACAGCCTAA)” is lower in “recombinant barcode read abundance (log10)” value: 2.28 for the first, 0.0896 for the second.

“CCTATAGCTTGGGTTCTAACCTGTTGCTT (site CCTATAGCTAA)” and “TAGGCTACTTGGGTTCTAACCTGTTGCAG (site TAGGCTACTTT)” are within 0.2 log units of each other in “recombinant barcode read abundance (log10)” value: 0.0878 for the first, 0.216 for the second.

“AGATCATCTTGGGTTCTAACCTGTTGCTT (site AGACCATCTAG)” and “GCCTCGCCTTGGGTTCTAACCTGTTGCAG (site GCCCCGCCTCT)” are within 0.2 log units of each other in “recombinant barcode read abundance (log10)” value: 0.0425 for the first, 0.133 for the second.

“GATTGGACTTGGGTTCTAACCTGTTGCTT (site TATTGGACTAA)” and “TAGCCCACTTGGGTTCTAACCTGTTGCGG (site TAGCGCACTCC)” are within 0.2 log units of each other in “recombinant barcode read abundance (log10)” value: 0.128 for the first, 0.0188 for the second.

Going from “GTCACCTCTTGGGTTCTAACCTGTTGCTA (site GTCACCTCTTA)” to “GTAAACACTTGGGTTCTAACCTGTTGCAG (site GTAAACACTCT)”, the “recombinant barcode read abundance (log10)” value falls from 1.58 to 0.514.

“ACGGTCACTTGGGTTCTAACCTGTTGCCT (site AAGGTCACTAG)” and “TTGGGAGCTTGGGTTCTAACCTGTTGCCT (site TTGGTAGCTAG)” are within 0.2 log units of each other in “recombinant barcode read abundance (log10)” value: 0.331 for the first, 0.442 for the second.

Going from “GCAAAGCCTTGGGTTCTAACCTGTTGCCT (site GCAAAGCCTAG)” to “CACACACCTTGGGTTCTAACCTGTTGCGT (site CACAATCCTAC)”, the “recombinant barcode read abundance (log10)” value falls from 1.18 to 0.189.

“CACGAGGCTTGGGTTCTAACCTGTTGCCT (site CACGAGGCTAG)” and “GTGCGCCCTTGGGTTCTAACCTGTTGCGG (site GTGCGCCCTAC)” are within 0.2 log units of each other in “recombinant barcode read abundance (log10)” value: 0.527 for the first, 0.369 for the second.

“TAGCACCCTTGGGTTCTAACCTGTTGCCT (site TAGCACCCTCG)” and “AGCCTTGCTTGGGTTCTAACCTGTTGCCT (site AGCATTGCTAG)” are within 0.2 log units of each other in “recombinant barcode read abundance (log10)” value: 0.0128 for the first, 0.0195 for the second.

First: CTGAGGCCTTGGGTTCTAACCTGTTGCCT (site CTGAGGCCTAG)
Second: GGTCCTGCTTGGGTTCTAACCTGTTGCCT (site GGTCCTGCTAG)
The “recombinant barcode read abundance (log10)” value of the first is lower: 0.497 for the first, 0.976 for the second.

“CTTGGGCCTTGGGTTCTAACCTGTTGCCT (site CCTGGGCCTAG)” and “GTGAGGACTTGGGTTCTAACCTGTTGCTG (site GTGTGGACTCT)” are within 0.2 log units of each other in “recombinant barcode read abundance (log10)” value: 0.16 for the first, 0.0356 for the second.

Compared with “ACACTAGCTTGGGTTCTAACCTGTTGCTG (site ACATTAGCTCA)”, “GCCGAGTCTTGGGTTCTAACCTGTTGCTA (site GCCGAGTCTTA)” is higher in “recombinant barcode read abundance (log10)” value: 0.0774 for the first, 0.411 for the second.

“CTGGGCCCTTGGGTTCTAACCTGTTGCCT (site CTGCGCCCTAG)” and “TAGTTAGCTTGGGTTCTAACCTGTTGCCT (site TAGTTAGCTTG)” are within 0.2 log units of each other in “recombinant barcode read abundance (log10)” value: 0.0544 for the first, 0.11 for the second.

Compared with “TAACGCTCTTGGGTTCTAACCTGTTGCCT (site TAACGCTCTAG)”, “GATCAGCCTTGGGTTCTAACCTGTTGCCT (site GATCTGCCTAG)” is lower in “recombinant barcode read abundance (log10)” value: 1.2 for the first, 0.063 for the second.

“AGACGTACTTGGGTTCTAACCTGTTGCGT (site TAGTTATCTTA)” and “TATTCTCCTTGGGTTCTAACCTGTTGCTT (site TATTCTCCTAT)” are within 0.2 log units of each other in “recombinant barcode read abundance (log10)” value: 0.102 for the first, 0.0253 for the second.

“CTCTCGCCTTGGGTTCTAACCTGTTGCCT (site CTATCGCCTAG)” and “CGTCACCCTTGGGTTCTAACCTGTTGCCT (site CGTCAGCCTAG)” are within 0.2 log units of each other in “recombinant barcode read abundance (log10)” value: 0 for the first, 0.12 for the second.

Going from “AACAGTTCTTGGGTTCTAACCTGTTGCCT (site AACAGTTCTAG)” to “CGTTCTACTTGGGTTCTAACCTGTTGCCT (site CGTTCAACTAG)”, the “recombinant barcode read abundance (log10)” value falls from 0.749 to 0.0719.

First: GAGCTTACTTGGGTTCTAACCTGTTGCCT (site GAGCTTACTAG)
Second: TAAAAGCCTTGGGTTCTAACCTGTTGCCT (site TAAAAGGCTAG)
The “recombinant barcode read abundance (log10)” value of the first is higher: 0.618 for the first, 0.0822 for the second.

First: CTCGCAGCTTGGGTTCTAACCTGTTGCGG (site CTCGCAGCTCC)
Second: AGCCCTCCTTGGGTTCTAACCTGTTGCTA (site AGCCCTCCTTA)
The “recombinant barcode read abundance (log10)” value of the first is lower: 0.313 for the first, 1.37 for the second.

“ACGCACACTTGGGTTCTAACCTGTTGCCT (site TCGCACACTAG)” and “GACTTGGCTTGGGTTCTAACCTGTTGCCT (site GACTTGCCTAG)” are within 0.2 log units of each other in “recombinant barcode read abundance (log10)” value: 0.233 for the first, 0.146 for the second.
